Data from PubChem BioAssay (NCI).
Several values for one entry are separate records, joined by “and”; a condition that tells them apart may be missing. Identical values can stand only once.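 Values below derive from 48-hour exposures of cells grown in 96-well plates, with endpoints linearly interpolated between the two concentrations bracketing the appropriate inhibition level. GI50: concentration for 50% inhibition of growth. At the TGI there is no net growth.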

Tests used:
Assay in all cases: NCI anticancer screen, dose series, 48 h
SF-295 CNS = tested on: SF-295 CNS
RPMI-8226 leukemia = tested on: RPMI-8226 leukemia
SNB-19 CNS = tested on: SNB-19 CNS
HCC-2998 colon = tested on: HCC-2998 colon
HOP-62 NSCLC = tested on: HOP-62 NSCLC
T-47D breast = tested on: T-47D breast
MDA-MB-435 = tested on: MDA-MB-435
SK-MEL-2 melanoma = tested on: SK-MEL-2 melanoma
UACC-62 melanoma = tested on: UACC-62 melanoma
SK-MEL-28 melanoma = tested on: SK-MEL-28 melanoma

Compound | TGI (SF-295 CNS) | TGI (RPMI-8226 leukemia) | TGI (SNB-19 CNS) | TGI (HCC-2998 colon) | TGI (HOP-62 NSCLC) | TGI (T-47D breast) | TGI (MDA-MB-435) | TGI (SK-MEL-2 melanoma) | TGI (UACC-62 melanoma) | TGI (SK-MEL-28 melanoma) | GI50 (SF-295 CNS) | GI50 (RPMI-8226 leukemia) | GI50 (SNB-19 CNS) | GI50 (HCC-2998 colon) | GI50 (HOP-62 NSCLC) | GI50 (T-47D breast) | GI50 (MDA-MB-435) | GI50 (SK-MEL-2 melanoma) | GI50 (UACC-62 melanoma) | GI50 (SK-MEL-28 melanoma)
NC(N)=NS(=O)(=O)c1ccc(NCc2c3ccccc3nc3ccccc23)cc1 | 22 µM | > 72.5 µM | 20.7 µM | 66.1 µM | 5.92 µM | 23.5 µM | > 100 µM | > 67 µM | 35.2 µM | > 97.1 µM | – | – | – | – | – | – | – | – | – | –
CS(=O)CCCCCN=C=S (centres undefined) | 31.4 µM | 14.5 µM | 32.1 µM | 28.8 µM | 29.4 µM | 7.56 µM | 15.8 µM | 14.7 µM | 12.5 µM | 16.8 µM | 17.1 µM | 3.79 µM | 16.1 µM | 13.9 µM | 12.5 µM | 2.32 µM | 3.57 µM | 3.43 µM | 2.93 µM | 4.07 µM
NS(=O)(=O)c1cc2c(cc1Cl)NC(Cc1ccccc1)NS2(=O)=O (centres undefined) | > 100 µM | > 100 µM | > 100 µM | > 100 µM | > 100 µM | > 100 µM | > 100 µM | > 100 µM | > 100 µM | > 100 µM | – | – | – | – | – | – | – | – | – | –
CN(C)c1ccc(C(=C2C=CC(=[N+](C)C)C=C2)c2ccc(N(C)C)cc2)cc1 (tested in a mixture with another compound) | 0.396 µM | – | 1.56 µM | 1.53 µM | 1.29 µM | 0.655 µM | 0.676 µM | 0.545 µM | 1.24 µM | 1.37 µM | 0.0483 µM | 0.04 µM | – | – | 0.0446 µM | 0.0389 µM | 0.0626 µM | – | – | 0.141 µM
CCCCCCCC/C=C/CCCCCCCCC1=NCCN1CCO | 4.05 µM | – | 33.2 µM | 34.2 µM | 29.4 µM | 9.96 µM | 3.91 µM | 25.1 µM | 11 µM | 24.4 µM | 1.93 µM | – | 7.21 µM | 14.2 µM | 5.29 µM | 2.96 µM | 1.87 µM | 11.9 µM | 3.05 µM | 10.5 µM
COc1ccc(-c2ccc(/C=N/n3c(COc4ccccc4Cl)nn(CN4CCN(C)CC4)c3=S)o2)c([N+](=O)[O-])c1 | – | – | > 100 µM | 27.7 µM | 37 µM | 77.1 µM | 40.9 µM | 83.3 µM | 44.9 µM | 69.4 µM | – | – | 27.1 µM | 14.5 µM | 21.7 µM | 22.1 µM | 18.3 µM | 31.6 µM | 19.2 µM | 24.5 µM
CCCCCCCCCCCCCCCCCC1=NCCN1CS(=O)(=O)O | 16.5 µM | 90.1 µM | 40.9 µM | 34.4 µM | 31.4 µM | 43.1 µM | 9.82 µM | 67.4 µM | 35.1 µM | 34.7 µM | 3.55 µM | 26.6 µM | 17.9 µM | 17 µM | 14.1 µM | 20 µM | 2.84 µM | 27.7 µM | 16.9 µM | 19.2 µM
CN1CCCNc2c(c(=O)c2=O)NCCCN(C)CCCNc2c(c(=O)c2=O)NCCCN(C)CCCNc2c(c(=O)c2=O)NCCCN(C)CCCNc2c(c(=O)c2=O)NCCCN(C)CCCNc2c(c(=O)c2=O)NCCCN(C)CCCNc2c(c(=O)c2=O)NCCCN(C)CCCNc2c(c(=O)c2=O)NCCC1 | 12.9 µM | 31.2 µM | 33.9 µM | 22.1 µM | 13.8 µM | 7.74 µM | 11.5 µM | 31.6 µM | 16.8 µM | 16.2 µM | 5.52 µM | 3.51 µM | 2.59 µM | 7.18 µM | 4.41 µM | 2.06 µM | 2.68 µM | 3.12 µM | 2.39 µM | 3.7 µM
CCC(C)n1cc(C)c2c(C(=O)NCc3c(C)cc(C)[nH]c3=O)cc(Br)cc21 (centres undefined) | > 100 µM | 68 µM | > 100 µM | > 100 µM | > 100 µM | 73.3 µM | > 100 µM | > 100 µM | > 100 µM | > 100 µM | 29.9 µM | 24.8 µM | > 100 µM | 52.4 µM | 65.2 µM | 20 µM | 27.1 µM | 35.9 µM | 29.4 µM | 72.5 µM
ClC1=C(Cl)C(Cl)=C(Cl)C1=C/C=C/c1ccccc1 | 1.02 µM | 0.275 µM | 2.44 µM | 0.464 µM | 4.17 µM | 0.631 µM | 0.977 µM | 0.678 µM | 0.467 µM | 0.597 µM | 0.311 µM | < 0.0374 µM | 0.59 µM | 0.229 µM | 1.2 µM | 0.153 µM | 0.302 µM | 0.256 µM | 0.191 µM | 0.249 µM
CC(C)(C)[Si](C)(C)OCC1OC(n2cnc3c(NC(=O)c4ccccc4)ncnc32)CC1O (centres undefined) | 44.2 µM | 47 µM | 74.3 µM | 88.6 µM | 35.5 µM | 99.5 µM | 44.6 µM | 57.9 µM | 40.4 µM | 87.4 µM | – | – | – | – | – | – | – | – | – | –
CC1/C=C/C=C/C=C/C=C/C=C/C=C/C=C/C(O[C@@H]2O[C@H](C)[C@H](O)[C@@H](O)[C@@H]2N)CC(O)C(C(=O)O)C(O)CC(=O)CC(O)CC(O)CC(O)CC(=O)CCCC(=O)CC(=O)OC1C(C)CC(C)C(O)CC(=O)c1ccc(N)cc1 (some centres undefined) | 0.155 µM and 0.605 µM | 0.171 µM and 0.682 µM | 0.147 µM and 1.09 µM | 0.104 µM and 1.03 µM | 0.118 µM and 0.402 µM | 0.188 µM and 1.24 µM | 0.108 µM and 0.438 µM | 0.813 µM | 0.109 µM and 0.458 µM | 0.108 µM and 0.356 µM | 0.0692 µM and 0.232 µM | 0.0748 µM and 0.238 µM | 0.066 µM and 0.279 µM | 0.058 µM and 0.302 µM | 0.063 µM and 0.192 µM | 0.0722 µM and 0.318 µM | 0.0597 µM and 0.208 µM | 0.267 µM | 0.0576 µM and 0.203 µM | 0.0622 µM and 0.189 µM
CC(=O)c1c(C(F)(F)F)n([O-])c2ccc(Cl)cc2[n+]1=O | 5.92 µM | 0.171 µM | > 27.6 µM | 2.41 µM | 1.86 µM | > 40.4 µM | 9.94 µM | 12.5 µM | 3.45 µM | 6.31 µM | 2.23 µM | < 0.0422 µM | 4.75 µM | 1.03 µM | 0.49 µM | 2.31 µM | 2.8 µM | 3.18 µM | 0.916 µM | 1.97 µM
